Source: patent US20210317145A1, “Boronic Acid Derivatives” (Merck Patent GmbH, priority 2018, published 2021)

Experiments:
[1] = target: Beta5 (purified human constitutive proteasome) (Homo sapiens, UniProt P20618+P28074); assay: Determination of Beta5 activity (fluorescence intensity assay, Suc-LLVY-AMC); assay type: biochemical; details: purified human constitutive proteasome 1.25 nM, incubation for 20 minutes at 25° C., Suc-LLVY-AMC 40 μM
Description: Determination of Beta5 Activity:
Measurement of Beta5 inhibition is performed in 384 well format based on fluorescence intensity assay.
(§1) Purified human constitutive proteasome (1.25 nM) and serial diluted compounds in DMSO (range of concentrations from 30 μM to […]) or controls are incubated for 20 minutes or 120 minutes (long incubation) at 25° C. in assay buffer containing 50 mM Tris pH 7.4, 0.03% SDS, 1 mM EDTA and 1% DMSO. The reaction is initiated by the addition of the fluorogenic peptide substrate, Suc-LLVY-AMC (Bachem 1-1395), at a concentration of 40 μM. After 60 minutes of incubation at 37° C., fluorescence intensity is measured at λex=350 nm and λem=450 nm with a fluorescence reader (Perkin Elmer Envision reader or equivalent).
(§2) Unless indicated otherwise the results are obtained after incubation for 20 minutes.

[2] = target: LMP7 (purified human immuno proteasome) (Homo sapiens, UniProt P20618+P28062); assay: Determination of LMP7 activity (fluorescence intensity assay, Suc-LLVY-AMC); assay type: biochemical; details: for Selectivity LMP7 vs Beta5: LMP7 versus Beta5, incubation for 20 minutes; for IC50: purified human immuno proteasome 0.25 nM, incubation for 20 minutes at 25° C., Suc-LLVY-AMC 40 μM
Description: Determination of LMP7 Activity:
Measurement of LMP7 inhibition is performed in 384 well format based on fluorescence intensity assay.
as §1, with “immuno” for “constitutive”, “(0.25” for “(1.25”
as §2

Row | Compound | IC50 [1] [µM] | Selectivity LMP7 vs Beta5 [2] | IC50 [2] [µM] | Selectivity LMP7 vs Beta5 ([2]; listed as drawing 86) | Selectivity LMP7 vs Beta5 ([2]; listed as drawing 87)
1 | CSCC(=O)N[C@H](Cc1coc2c(C)cccc12)B(O)O [Compound 1, [(1S)-2-(7-methylbenzo-furan-3-yl)-1-[(2-methyl-sulfanylacetyl)amino]-ethyl]boronic acid] | 5 to 30 | ++ (100 ≤ Selectivity < 300) | 0.5 to 5 | – | –
2 | CSCC(=O)N[C@@H](Cc1coc2c(C(F)(F)F)cccc12)B(O)O [Compound 3, [(1R)-1-[(2-methyl-sulfanylacetyl)amino]-2-[7-(trifluoromethyl)-benzofuran-3-yl]ethyl]-boronic acid] | 0.5 to 5 | +++ (300 ≤ Selectivity < 500) | ≤ 0.05 | – | –
3 | COc1cccc2occ(C[C@H](NC(=O)CSC)B(O)O)c12 [Compound 4, [(1R)-2-(4-methoxy-benzofuran-3-yl)-1-[(2-methylsulfanylacetyl)-amino]ethyl]boronic acid] | 5 to 30 | + (Selectivity <100) | 0.5 to 5 | – | –
4 | CSCC(=O)N[C@@H](C[C@@H]1COc2ccccc21)B(O)O [Compound 5, [(1R)-2-[(3S)-2,3-dihydrobenzofuran-3-yl]-1-[(2-methylsulfan-ylacetyl)amino]ethyl]-boronic acid] | 0.5 to 5 | +++ (300 ≤ Selectivity < 500) | ≤ 0.05 | – | –
5 | CSCC(=O)N[C@@H](Cc1coc2c(C)cccc12)B(O)O [Compound 6, [(1R)-2-(7-methylbenzo-furan-3-yl)-1-[(2-methyl-sulfanylacetyl)amino]-ethyl]boronic acid] | 0.05 to 0.5 | ++ (100 ≤ Selectivity < 300) | ≤ 0.05 | – | –
6 | CSCC(=O)NC(Cc1coc2c(F)cccc12)B(O)O (stereo not drawn) [Compound 9, [2-(7-fluorobenzofuran-3-yl)-1-[(2-methyl-sulfanylacetyl)amino]-ethyl]boronic acid] | 0.5 to 5 | ++ (100 ≤ Selectivity < 300) | ≤ 0.05 | – | –
7 | CSCC(=O)N[C@@H](CC1COc2c(C)cccc21)B(O)O (stereo partly drawn) [Compound 10, [(1R)-2-(7-methyl-2,3-dihydrobenzofuran-3-yl)-1-[(2-methyl-sulfanylacetyl)amino]-ethyl]boronic acid] | 5 to 30 | ++++ (Selectivity ≥ 500) | ≤ 0.05 | – | –
8 | CSCC(=O)N[C@@H](Cc1coc2c(F)cccc12)B(O)O [Compound 12, [(1R)-2-(7-fluorobenzo-furan-3-yl)-1-[(2-methyl-sulfanylacetyl)amino]-ethyl]boronic acid] | 0.05 to 0.5 | ++ (100 ≤ Selectivity < 300) | ≤ 0.05 | – | –
9 | CSCC(=O)N[C@@H](Cc1coc2c(C)c(Cl)ccc12)B(O)O [Compound 14, [(1R)-2-(6-chloro-7-methylbenzofuran-3-yl)-1-[(2-methyl-sulfanylacetyl)amino]-ethyl]boronic acid] | 0.5 to 5 | +++ (300 ≤ Selectivity < 500) | ≤ 0.05 | – | –
10 | CSCC(=O)NC(CC1COc2ccccc21)B(O)O (stereo not drawn) [Compound 19, [2-(2,3-dihydrobenzo-furan-3-yl)-1-[(2-methylsulfanylacetyl)-amino]ethyl]boronic acid] | 5 to 30 | ++++ (Selectivity ≥ 500) | ≤ 0.05 | – | –
11 | CSCC(=O)NC(Cc1coc2c(C)c(Cl)ccc12)B(O)O (stereo not drawn) [Compound 20, [2-(6-chloro-7-methyl-benzofuran-3-yl)-1-[(2-methylsulfanylacetyl)-amino]ethyl]boronic acid] | 0.5 to 5 | +++ (300 ≤ Selectivity < 500) | ≤ 0.05 | – | –
12 | CSCC(=O)N[C@@H](Cc1ccc(C)cc1C)B(O)O [Compound 21, [(1R)-2-(2,4-dimethyl-phenyl)-1-[(2-methyl-sulfanylacetyl)amino]-ethyl]boronic acid] | 0.5 to 5 | ++ (100 ≤ Selectivity < 300) | ≤ 0.05 | – | –

Other lines, results leading:

Row | IC50 [1] [µM] | Selectivity LMP7 vs Beta5 [2] | IC50 [2] [µM] | Selectivity LMP7 vs Beta5 ([2]; listed as drawing 86) | Selectivity LMP7 vs Beta5 ([2]; listed as drawing 87) | Compound
13 | 5 to 30 | ++ (100 ≤ Selectivity < 300) | ≤ 0.05 | – | – | CSC(C(=O)N[C@@H](Cc1coc2ccccc12)B(O)O)c1ccccc1 (single isomer, unassigned) [Compound 7]
14 | 0.05 to 0.5 | – | ≤ 0.05 | + (Selectivity <100) | – | O=C(N[C@@H](Cc1coc2ccccc12)B(O)O)C1Cc2ccccc2O1 (single isomer, unassigned) [Compound 36]
15 | 0.5 to 5 | – | ≤ 0.05 | – | +++ (300 ≤ Selectivity < 500) | O=C(N[C@@H](Cc1coc2ccccc12)B(O)O)C1Cc2ccccc2O1 (single isomer, unassigned) [Compound 37]
16 | 0.5 to 5 | ++ (100 ≤ Selectivity < 300) | ≤ 0.05 | – | – | O=C(N[C@@H](Cc1coc2ccccc12)B(O)O)C1SCCS1 [Compound 8, [(1R)-2-(benzofuran-3-yl)-1-(1,3-dithiolane-2-carbonylamino)ethyl]-boronic acid]
17 | 0.05 to 0.5 | ++ (100 ≤ Selectivity < 300) | ≤ 0.05 | – | – | O=C(N[C@@H](Cc1coc2ccccc12)B(O)O)C1OCCS1 (stereo partly drawn) [Compound 11, [(1R)-2-(benzofuran-3-yl)-1-(1,3-oxathiolane-2-carbonylamino)ethyl]-boronic acid]
18 | 0.5 to 5 | +++ (300 ≤ Selectivity < 500) | ≤ 0.05 | – | – | CCSCC(=O)N[C@@H](Cc1coc2ccccc12)B(O)O [Compound 13, [(1R)-2-(benzofuran-3-yl)-1-[(2-ethylsulfanyl-acetyl)amino]ethyl]-boronic acid]
19 | 0.05 to 0.5 | + (Selectivity <100) | ≤ 0.05 | – | – | O=C(CSCCCO)N[C@@H](Cc1coc2ccccc12)B(O)O [Compound 15, [(1R)-2-(benzofuran-3-yl)-1-[[2(3-hydroxy-propylsulfanyl)acetyl]-amino]ethyl]boronic acid]
20 | 0.05 to 0.5 | ++ (100 ≤ Selectivity < 300) | ≤ 0.05 | – | – | CSCC(=O)N[C@@H](Cc1coc2c(Cl)cccc12)B(O)O [Compound 16, [(1R)-2-(7-chlorobenzo-furan-3-yl)-1-[(2-methylsulfanylacetyl)-amino]ethyl]boronic acid]
21 | 5 to 30 | ++ (100 ≤ Selectivity < 300) | ≤ 0.05 | – | – | O=C(N[C@@H](Cc1coc2ccccc12)B(O)O)C1CCCS1 (stereo partly drawn) [Compound 17, [(1R)-2-(benzofuran-3-yl)-1-(tetrahydrothio-phene-2-carbonyl-amino)ethyl]boronic acid]
22 | 0.5 to 5 | ++ (100 ≤ Selectivity < 300) | ≤ 0.05 | – | – | CSCC(=O)N[C@@H](Cc1coc2ccccc12)B(O)O [Compound 22, [(1R)-2-(benzofuran-3-yl)-1-[(2-methyl-sulfanylacetyl)-amino]ethyl]boronic acid]
23 | 5 to 30 | ++ (100 ≤ Selectivity < 300) | 0.05 to 0.5 | – | – | CSCC(=O)N[C@H](Cc1coc2c(F)cccc12)B(O)O [Compound 23]
24 | 0.5 to 5 | ++ (100 ≤ Selectivity < 300) | ≤ 0.05 | – | – | O=C(CCO)N[C@@H](Cc1coc2ccccc12)B(O)O [Compound 24, [(1R)-2-(benzofuran-3-yl)-1-(3-hydroxypro-panoylamino)ethyl]-boronic acid]
25 | 5 to 30 | ++ (100 ≤ Selectivity < 300) | ≤ 0.05 | – | – | CC(C)(O)CC(=O)N[C@@H](Cc1coc2ccccc12)B(O)O [Compound 25, [(1R)-2-(benzofuran-3-yl)-1-[(3-hydroxy-3-methylbutanoyl)amino]-ethyl]boronic acid]
26 | 5 to 30 | ++ (100 ≤ Selectivity < 300) | 0.05 to 0.5 | – | – | O=C(N[C@@H](Cc1coc2ccccc12)B(O)O)[C@@H]1CCCO1 [Compound 26, [(1R)-2-(benzofuran-3-yl)-1-[[(2S)-tetrahydro-furan-2-carbonyl]amino]-ethyl]boronic acid]
27 | 0.5 to 5 | ++ (100 ≤ Selectivity < 300) | ≤ 0.05 | – | – | O=C(N[C@@H](Cc1coc2ccccc12)B(O)O)[C@H]1CCCO1 [Compound 27, [(1R)-2-(benzofuran-3-yl)-1-[[(2R)-tetrahydro-furan-2-carbonyl]amino]-ethyl]boronic acid]
28 | 0.5 to 5 | + (Selectivity <100) | ≤ 0.05 | – | – | COCC(=O)N[C@@H](Cc1coc2ccccc12)B(O)O [Compound 28, [(1R)-2-(benzofuran-3-yl)-1-[(2-methoxy-acetyl)amino]ethyl]-boronic acid]
